#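 The concentration for 50% growth inhibition is given as GI50. TGI: total growth inhibition.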
# Legend:
# Test in all cases: NCI tumour cell line growth inhibition, 384-well format
# [1] = system: 786-0 renal
# [2] = system: A498 renal
# [3] = system: A549 NSCLC
# [4] = system: ACHN renal
# [5] = system: BT-549 breast
# [6] = system: CAKI-1 renal
# [7] = system: CCRF-CEM leukemia
# [8] = system: COLO 205 colon
# [9] = system: DU-145 prostate
# [10] = system: HCC-2998 colon
# [11] = system: HCT-116 colon
# [12] = system: HCT-15 colon
# [13] = system: HL-60(TB) leukemia
# [14] = system: HOP-62 NSCLC
# [15] = system: HOP-92 NSCLC
# [16] = system: HT29 colon
# [17] = system: IGROV1 ovarian
# [18] = system: K-562 leukemia
# [19] = system: KM12 colon
# [20] = system: LOX IMVI melanoma
# [21] = system: M14 melanoma
# [22] = system: MALME-3M melanoma
# [23] = system: MCF7 breast
# [24] = system: MDA-MB-231 breast
# [25] = system: MDA-MB-435 melanoma
# [26] = system: MDA-MB-468 breast
# [27] = system: MOLT-4 leukemia
# [28] = system: NCI-H226 lung
# [29] = system: NCI-H23 lung
# [30] = system: NCI-H322M lung
# [31] = system: NCI-H460 NSCLC
# [32] = system: NCI-H522 lung
# [33] = system: NCI/ADR-RES ovarian
# [34] = system: OVCAR-3 ovarian
# [35] = system: OVCAR-4 ovarian
# [36] = system: OVCAR-5 ovarian
# [37] = system: OVCAR-8 ovarian
# [38] = system: PC-3 prostate
# [39] = system: RPMI-8226 leukemia
# [40] = system: RXF 393 renal
# [41] = system: SF-268 CNS
# [42] = system: SF-295 CNS
# [43] = system: SF-539 CNS
# [44] = system: SK-MEL-2 melanoma
# [45] = system: SK-MEL-28 melanoma
# [46] = system: SK-MEL-5 melanoma
# [47] = system: SK-OV-3 ovarian
# [48] = system: SN12C renal
# [49] = system: SNB-19 CNS
# [50] = system: SR leukemia
# [51] = system: SW-620 colon
# [52] = system: T-47D breast
# [53] = system: TK-10 renal
# [54] = system: U251 glioblastoma
# [55] = system: UACC-257 melanoma
# [56] = system: UACC-62 melanoma
# [57] = system: UO-31 renal
smiles,measurement,setting,value
C#Cc1c(F)ccc2cc(O)cc(-c3ncc4c(N5CC6CCC(C5)N6)nc(OC[C@@]56CCCN5C[C@H](F)C6)nc4c3F)c12,GI50,[1],12.4 µM
same,TGI,[1],24.9 µM
same,GI50,[2],10.5 µM
same,TGI,[2],22.4 µM
same,GI50,[3],5.54 µM
same,TGI,[3],18.5 µM
same,GI50,[4],16.1 µM
same,TGI,[4],29.7 µM
same,GI50,[5],1860 nM
same,TGI,[5],3.47 µM
same,GI50,[6],10.9 µM
same,TGI,[6],22.9 µM
same,GI50,[7],1250 nM
same,TGI,[7],2510 nM
same,GI50,[8],2020 nM
same,TGI,[8],3.94 µM
same,GI50,[9],13.7 µM
same,TGI,[9],26.6 µM
same,GI50,[10],303 nM
same,TGI,[10],1670 nM
same,GI50,[11],1370 nM
same,TGI,[11],2900 nM
same,GI50,[12],14.6 µM
same,TGI,[12],27.8 µM
same,GI50,[13],1870 nM
same,TGI,[13],3.28 µM
same,GI50,[14],853 nM
same,TGI,[14],10.2 µM
same,GI50,[15],2030 nM
same,TGI,[15],4.02 µM
same,GI50,[16],2020 nM
same,TGI,[16],4.05 µM
same,GI50,[17],12.4 µM
same,TGI,[17],24.9 µM
same,GI50,[18],3.58 µM
same,TGI,[18],9.9 µM
same,GI50,[19],2070 nM
same,TGI,[19],5.31 µM
same,GI50,[20],2230 nM
same,TGI,[20],3.7 µM
same,GI50,[21],1780 nM
same,TGI,[21],3.27 µM
same,GI50,[22],1990 nM
same,TGI,[22],3.43 µM
same,GI50,[23],2360 nM
same,TGI,[23],5.28 µM
same,GI50,[24],1940 nM
same,TGI,[24],4 µM
same,GI50,[25],1930 nM
same,TGI,[25],3.4 µM
same,GI50,[26],2080 nM
same,TGI,[26],3.55 µM
same,GI50,[27],1900 nM
same,TGI,[27],3.32 µM
same,GI50,[28],10.7 µM
same,TGI,[28],22.6 µM
same,GI50,[29],568 nM
same,TGI,[29],3.51 µM
same,GI50,[30],6.12 µM
same,TGI,[30],19.3 µM
same,GI50,[31],1510 nM
same,TGI,[31],5.97 µM
same,GI50,[32],1830 nM
same,TGI,[32],3.63 µM
same,GI50,[33],85.7 µM
same,TGI,[33],> 100 µM
same,GI50,[34],4.45 µM
same,TGI,[34],16.6 µM
same,GI50,[35],7.07 µM
same,TGI,[35],19.7 µM
same,GI50,[36],3.14 µM
same,TGI,[36],10.5 µM
same,GI50,[37],12.2 µM
same,TGI,[37],24.7 µM
same,GI50,[38],9.06 µM
same,TGI,[38],21 µM
same,GI50,[39],77.4 nM
same,TGI,[39],845 nM
same,GI50,[40],2410 nM
same,TGI,[40],6.19 µM
same,GI50,[41],1990 nM
same,TGI,[41],4.34 µM
same,GI50,[42],17.7 µM
same,TGI,[42],31.6 µM
same,GI50,[43],1920 nM
same,TGI,[43],3.52 µM
same,GI50,[44],1850 nM
same,TGI,[44],3.26 µM
same,GI50,[45],1870 nM
same,TGI,[45],3.29 µM
same,GI50,[46],1670 nM
same,TGI,[46],3.66 µM
same,GI50,[47],2360 nM
same,TGI,[47],5.59 µM
same,GI50,[48],11.5 µM
same,TGI,[48],23.7 µM
same,GI50,[49],10.8 µM
same,TGI,[49],22.8 µM
same,GI50,[50],1060 nM
same,TGI,[50],2250 nM
same,GI50,[51],375 nM
same,TGI,[51],1610 nM
same,GI50,[52],2030 nM
same,TGI,[52],5.32 µM
same,GI50,[53],17.3 µM
same,TGI,[53],31.1 µM
same,GI50,[54],1830 nM
same,TGI,[54],3.36 µM
same,GI50,[55],1770 nM
same,TGI,[55],3.17 µM
same,GI50,[56],1780 nM
same,TGI,[56],3.18 µM
same,GI50,[57],15.8 µM
same,TGI,[57],29.3 µM
